Our source for the normalised inhibition (eCFP-eYFP dual reporter) values is the OligoGym collection.

Oligonucleotides are written 5' to 3', each unit as a sugar letter and its base; * is a phosphorothioate linkage, no mark a phosphodiester; rarer units and linkages stand in square brackets, end groups in braces. Plain capitals give the bases only. Oligonucleotides are given in HELM: sugar(base)linkage, 5' to 3'; d 2'-deoxyribose, r ribose, m 2'-O-methylribose, p phosphate. ss, as = sense and antisense strand; d = 2'-deoxy (DNA); r = 2'-OH (RNA)
Note: test concentration or dose not given here.

For one data set, the target named is CDC34. Briefly: reporter assay of Huesken 2005. The following applies: siRNA.
Take “RNA1{r(A)p.r(A)p.r(C)p.r(G)p.r(U)p.r(G)p.r(G)p.r(A)p.r(C)p.r(G)p.r(C)p.r(C)p.r(U)p.r(C)p.r(C)p.r(G)p.r(U)p.r(G)p.r(A)p.d(T)p.d(T)}|RNA2{r(U)p.r(C)p.r(A)p.r(C)p.r(G)p.r(G)p.r(A)p.r(G)p.r(G)p.r(C)p.r(G)p.r(U)p.r(C)p.r(C)p.r(A)p.r(C)p.r(G)p.r(U)p.r(U)p.d(T)p.d(G)}$$$RNA1{StrandType:ss}|RNA2{StrandType:as}$”: the normalised inhibition (eCFP-eYFP dual reporter) amounted to 55.2%.
On the same count and under the same terms, in the case of “RNA1{r(A)p.r(A)p.r(G)p.r(A)p.r(C)p.r(C)p.r(A)p.r(A)p.r(G)p.r(G)p.r(C)p.r(G)p.r(C)p.r(C)p.r(G)p.r(G)p.r(C)p.r(G)p.r(C)p.d(T)p.d(T)}|RNA2{r(G)p.r(C)p.r(G)p.r(C)p.r(C)p.r(G)p.r(G)p.r(C)p.r(G)p.r(C)p.r(C)p.r(U)p.r(U)p.r(G)p.r(G)p.r(U)p.r(C)p.r(U)p.r(U)p.d(C)p.d(A)}$$$RNA1{StrandType:ss}|RNA2{StrandType:as}$” it was 25.5%.
Still for that read-out and setting: in the case of “RNA1{r(A)p.r(A)p.r(G)p.r(A)p.r(U)p.r(G)p.r(U)p.r(G)p.r(G)p.r(C)p.r(A)p.r(C)p.r(C)p.r(C)p.r(U)p.r(A)p.r(A)p.r(C)p.r(A)p.d(T)p.d(T)}|RNA2{r(U)p.r(G)p.r(U)p.r(U)p.r(A)p.r(G)p.r(G)p.r(G)p.r(U)p.r(G)p.r(C)p.r(C)p.r(A)p.r(C)p.r(A)p.r(U)p.r(C)p.r(U)p.r(U)p.d(G)p.d(G)}$$$RNA1{StrandType:ss}|RNA2{StrandType:as}$” it was 36.7%; in that of “RNA1{r(A)p.r(C)p.r(A)p.r(G)p.r(A)p.r(C)p.r(A)p.r(U)p.r(C)p.r(A)p.r(U)p.r(C)p.r(C)p.r(G)p.r(G)p.r(A)p.r(A)p.r(G)p.r(C)p.d(T)p.d(T)}|RNA2{r(G)p.r(C)p.r(U)p.r(U)p.r(C)p.r(C)p.r(G)p.r(G)p.r(A)p.r(U)p.r(G)p.r(A)p.r(U)p.r(G)p.r(U)p.r(C)p.r(U)p.r(G)p.r(U)p.d(G)p.d(T)}$$$RNA1{StrandType:ss}|RNA2{StrandType:as}$”, 34.9%.
Same read-out and setting: the same measure for “RNA1{r(A)p.r(C)p.r(C)p.r(A)p.r(U)p.r(U)p.r(C)p.r(U)p.r(C)p.r(C)p.r(U)p.r(G)p.r(A)p.r(G)p.r(U)p.r(G)p.r(U)p.r(G)p.r(A)p.d(T)p.d(T)}|RNA2{r(U)p.r(C)p.r(A)p.r(C)p.r(A)p.r(C)p.r(U)p.r(C)p.r(A)p.r(G)p.r(G)p.r(A)p.r(G)p.r(A)p.r(A)p.r(U)p.r(G)p.r(G)p.r(U)p.d(C)p.d(C)}$$$RNA1{StrandType:ss}|RNA2{StrandType:as}$”: 81.3%; for “RNA1{r(A)p.r(C)p.r(C)p.r(C)p.r(C)p.r(A)p.r(C)p.r(G)p.r(C)p.r(A)p.r(G)p.r(A)p.r(A)p.r(C)p.r(G)p.r(U)p.r(C)p.r(A)p.r(G)p.d(T)p.d(T)}|RNA2{r(C)p.r(U)p.r(G)p.r(A)p.r(C)p.r(G)p.r(U)p.r(U)p.r(C)p.r(U)p.r(G)p.r(C)p.r(G)p.r(U)p.r(G)p.r(G)p.r(G)p.r(G)p.r(U)p.d(T)p.d(C)}$$$RNA1{StrandType:ss}|RNA2{StrandType:as}$”: 57.8%; for “RNA1{r(A)p.r(C)p.r(C)p.r(U)p.r(C)p.r(U)p.r(U)p.r(C)p.r(U)p.r(A)p.r(C)p.r(G)p.r(A)p.r(C)p.r(G)p.r(A)p.r(C)p.r(U)p.r(A)p.d(T)p.d(T)}|RNA2{r(U)p.r(A)p.r(G)p.r(U)p.r(C)p.r(G)p.r(U)p.r(C)p.r(G)p.r(U)p.r(A)p.r(G)p.r(A)p.r(A)p.r(G)p.r(A)p.r(G)p.r(G)p.r(U)p.d(C)p.d(T)}$$$RNA1{StrandType:ss}|RNA2{StrandType:as}$”: 89.3%.
In the case of “RNA1{r(A)p.r(C)p.r(G)p.r(C)p.r(U)p.r(G)p.r(G)p.r(C)p.r(C)p.r(G)p.r(A)p.r(G)p.r(U)p.r(A)p.r(C)p.r(U)p.r(G)p.r(C)p.r(G)p.d(T)p.d(T)}|RNA2{r(C)p.r(G)p.r(C)p.r(A)p.r(G)p.r(U)p.r(A)p.r(C)p.r(U)p.r(C)p.r(G)p.r(G)p.r(C)p.r(C)p.r(A)p.r(G)p.r(C)p.r(G)p.r(U)p.d(G)p.d(G)}$$$RNA1{StrandType:ss}|RNA2{StrandType:as}$”, the normalised inhibition (eCFP-eYFP dual reporter) came out at 52.4%.
The substance “RNA1{r(A)p.r(C)p.r(G)p.r(U)p.r(C)p.r(A)p.r(G)p.r(G)p.r(A)p.r(C)p.r(C)p.r(A)p.r(U)p.r(U)p.r(C)p.r(U)p.r(C)p.r(C)p.r(U)p.d(T)p.d(T)}|RNA2{r(A)p.r(G)p.r(G)p.r(A)p.r(G)p.r(A)p.r(A)p.r(U)p.r(G)p.r(G)p.r(U)p.r(C)p.r(C)p.r(U)p.r(G)p.r(A)p.r(C)p.r(G)p.r(U)p.d(T)p.d(C)}$$$RNA1{StrandType:ss}|RNA2{StrandType:as}$” gave a normalised inhibition (eCFP-eYFP dual reporter) of 72.2%.

Another data set has as its target UBE2I. The experiment in a line: reporter assay of Huesken 2005. The note with it: siRNA. For orientation: Reporter assays use an easily measured gene product as a stand-in for the process of interest.
The substance “sense rCrGrGrArUrGrCrUrUrUrUrCrArArArGrArUrGdTdT / antisense rCrArUrCrUrUrUrGrArArArArGrCrArUrCrCrGdTdA” returned a normalised inhibition (eCFP-eYFP dual reporter) of 87.3%.
Still for that read-out and setting: in the case of “sense rCrUrUrCrUrArArArUrGrArArCrCrArArArUrAdTdT / antisense rUrArUrUrUrGrGrUrUrCrArUrUrUrArGrArArGdTdT” it was 88.8%.
With “sense rGrArArArGrArArArGrGrGrArCrUrCrCrGrUrGdTdT / antisense rCrArCrGrGrArGrUrCrCrCrUrUrUrCrUrUrUrCdCdT”, the normalised inhibition (eCFP-eYFP dual reporter) was 53.1%.
On the same count and under the same terms, the same measure for “sense rGrArArArGrGrGrArCrUrCrCrGrUrGrGrGrArAdTdT / antisense rUrUrCrCrCrArCrGrGrArGrUrCrCrCrUrUrUrCdTdT”: 89.3%; for “sense rGrArGrGrArGrGrArCrArArGrGrArCrUrGrGrAdTdT / antisense rUrCrCrArGrUrCrCrUrUrGrUrCrCrUrCrCrUrCdTdA”: 70.5%; for “sense rGrArGrGrCrUrUrGrUrUrUrArArArCrUrArCrGdTdT / antisense rCrGrUrArGrUrUrUrArArArCrArArGrCrCrUrCdCdT”: 73.2%.
The substance “sense rGrArGrUrGrCrGrCrCrArUrUrCrCrArGrGrArAdTdT / antisense rUrUrCrCrUrGrGrArArUrGrGrCrGrCrArCrUrCdCdC” registered a normalised inhibition (eCFP-eYFP dual reporter) of 72.6%.
With “sense rGrCrArCrGrArUrGrArArCrCrUrCrArUrGrArAdTdT / antisense rUrUrCrArUrGrArGrGrUrUrCrArUrCrGrUrGrCdCdA”, the normalised inhibition (eCFP-eYFP dual reporter) is 84.4%.
With “sense rGrCrCrUrArCrArCrGrArUrUrUrArCrUrGrCrCdTdT / antisense rGrGrCrArGrUrArArArUrCrGrUrGrUrArGrGrCdCdT”, the normalised inhibition (eCFP-eYFP dual reporter) came out at 67.8%.
With “sense rGrCrUrUrGrUrUrUrArArArCrUrArCrGrGrArUdTdT / antisense rArUrCrCrGrUrArGrUrUrUrArArArCrArArGrCdCdT”, the normalised inhibition (eCFP-eYFP dual reporter) was determined as 92.2%.
“sense rGrGrArCrArArGrGrArCrUrGrGrArGrGrCrCrAdTdT / antisense rUrGrGrCrCrUrCrCrArGrUrCrCrUrUrGrUrCrCdTdC” gave a normalised inhibition (eCFP-eYFP dual reporter) of 85.9%.
Same read-out and setting: the same measure for “sense rGrGrArGrGrCrUrUrGrUrUrUrArArArCrUrArCdTdT / antisense rGrUrArGrUrUrUrArArArCrArArGrCrCrUrCrCdTdT”: 82.5%.
“sense rGrGrGrGrArCrArGrUrGrUrGrCrCrUrGrUrCrCdTdT / antisense rGrGrArCrArGrGrCrArCrArCrUrGrUrCrCrCrCdGdA”: the normalised inhibition (eCFP-eYFP dual reporter) was 47.8%.
On the same count and under the same terms, in the case of “sense rGrUrArArArUrUrCrGrArArCrCrArCrCrArUrUdTdT / antisense rArArUrGrGrUrGrGrUrUrCrGrArArUrUrUrArCdAdT” it was 89.2%; in that of “sense rUrArCrArCrGrArUrUrUrArCrUrGrCrCrArArAdTdT / antisense rUrUrUrGrGrCrArGrUrArArArUrCrGrUrGrUrAdGdG”, 92.9%.
Still for that read-out and setting: the same measure for “sense rUrArUrUrArGrGrArArUrArCrArGrGrArArCrUdTdT / antisense rArGrUrUrCrCrUrGrUrArUrUrCrCrUrArArUrAdGdG”: 71.9%.
Still for that read-out and setting: the same measure for “sense rUrArUrUrUrCrArCrCrCrGrArArUrGrUrGrUrAdTdT / antisense rUrArCrArCrArUrUrCrGrGrGrUrGrArArArUrAdAdT”: 78.9%.
For the substance “sense rUrCrCrCrGrArUrGrGrCrArCrGrArUrGrArArCdTdT / antisense rGrUrUrCrArUrCrGrUrGrCrCrArUrCrGrGrGrAdTdT”, the normalised inhibition (eCFP-eYFP dual reporter) is 48.8%.
In the case of “sense rUrCrCrGrUrGrGrGrArArGrGrArGrGrCrUrUrGdTdT / antisense rCrArArGrCrCrUrCrCrUrUrCrCrCrArCrGrGrAdGdT”, the normalised inhibition (eCFP-eYFP dual reporter) was determined as 52.4%.
The same measure, in the same setting: the same measure for “sense rUrGrArUrUrArUrCrCrArUrCrUrUrCrGrCrCrAdTdT / antisense rUrGrGrCrGrArArGrArUrGrGrArUrArArUrCrAdTdC”: 59%; for “sense rUrGrGrGrArArGrGrArGrGrCrUrUrGrUrUrUrAdTdT / antisense rUrArArArCrArArGrCrCrUrCrCrUrUrCrCrCrAdCdG”: 78%; for “sense rUrGrUrGrCrCrUrGrUrCrCrArUrCrUrUrArGrAdTdT / antisense rUrCrUrArArGrArUrGrGrArCrArGrGrCrArCrAdCdT”: 76%.
Take “sense rUrGrUrUrUrArArArCrUrArCrGrGrArUrGrCrUdTdT / antisense rArGrCrArUrCrCrGrUrArGrUrUrUrArArArCrAdAdG”: the normalised inhibition (eCFP-eYFP dual reporter) amounted to 68.1%.
With “sense rUrUrArArArCrUrArCrGrGrArUrGrCrUrUrUrUdTdT / antisense rArArArArGrCrArUrCrCrGrUrArGrUrUrUrArAdAdC”, the normalised inhibition (eCFP-eYFP dual reporter) was 50.2%.
“sense rUrUrCrArArArGrArUrGrArUrUrArUrCrCrArUdTdT / antisense rArUrGrGrArUrArArUrCrArUrCrUrUrUrGrArAdAdA”: the normalised inhibition (eCFP-eYFP dual reporter) came to 65.2%.
Take “sense rUrUrCrArCrCrCrGrArArUrGrUrGrUrArCrCrCdTdT / antisense rGrGrGrUrArCrArCrArUrUrCrGrGrGrUrGrArAdAdT”: the normalised inhibition (eCFP-eYFP dual reporter) amounted to 49.6%.
“sense rUrUrCrGrArArCrCrArCrCrArUrUrArUrUrUrCdTdT / antisense rGrArArArUrArArUrGrGrUrGrGrUrUrCrGrArAdTdT” came in with a normalised inhibition (eCFP-eYFP dual reporter) of 59.1%.
